Source: publication PMC6043591, “Rpn11-mediated ubiquitin processing in an ancestral archaeal ubiquitination system” (Nature Communications, 2018)
pKd: −log10 of the molar value.

Legend:
CsJAMM = biological target: T1, CsJAMM (Candidatus Caldarchaeum subterraneum, UniProt E6N2R7); assay: SDS-PAGE of SAMP Csub_C0702 precursor cleavage; format: biochemical; conditions: […] SAMP Csub_C0702, […] enzyme, […] °C, pH […] min preincubation
T1 construct: gene CSUB_C0703; N-terminal His6 tag with TEV site; synthetic gene, E. coli
T1 sequence (E6N2R7 1-140): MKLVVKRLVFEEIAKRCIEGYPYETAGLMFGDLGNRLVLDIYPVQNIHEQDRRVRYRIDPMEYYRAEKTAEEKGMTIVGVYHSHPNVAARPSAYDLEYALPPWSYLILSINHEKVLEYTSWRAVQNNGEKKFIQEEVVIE

CsRpn11^Δ149–202 = biological target: T2, CsRpn11^Δ149–202 (Candidatus Caldarchaeum subterraneum, UniProt E6N8B9); assay: SDS-PAGE of CsUb-pre cleavage; format: biochemical; conditions: 14 µM CsUb-pre, 1.75 µM enzyme, 45 °C, pH 7.5, 10 min preincubation; proposed coordination of catalytic Zn2+
T2 construct: gene CSUB_C1473; JAMM core domain, C-terminal residues 149-202 deleted (full length 202); N-terminal His6 tag with TEV site

[1] = biological target: truncated CsRpn11^Δ149–202 (Candidatus Caldiarchaeum subterraneum)
[2] = biological target: truncated CsRpn11^Δ149–202 (Candidatus Caldiarchaeum subterraneum); assay: MST; 50 nM NT-647-labeled CsRpn11^Δ149–202 mixed with a serial 1:1 dilution of CsUb from 47 nM to 770 µM; 45 °C; Monolith NT.115, MST power 80%, laser intensity 40%; three independent experiments

Compound | SDS-PAGE of SAMP Csub_C0702 precursor cleavage (CsJAMM) | SDS-PAGE of CsUb-pre cleavage (CsRpn11^Δ149–202) | KM of CsUb-pre cleavage by Co^2+-bound CsRpn11^Δ149–202 at 45 °C, quantified from SDS-PAGE bands [1] [µM] | pKd [2]
Sc1cccc2cccnc12 [8-thioquinoline] | effects on CsJAMM-mediated CsSAMP processing were significantly weaker | CsUb-pre processing by CsRpn11 was strongly affected by both 8-TQ and thiolutin |  | 
CC(=O)Nc1c2sscc-2n(C)c1=O [thiolutin] | effects on CsJAMM-mediated CsSAMP processing were significantly weaker | CsUb-pre processing by CsRpn11 was strongly affected by both 8-TQ and thiolutin |  | 
CsUb precursor (CsUb-pre) (natural protein) |  |  | 17.8 | 
mature C. subterraneum ubiquitin CsUb (natural protein) |  |  |  | 4.84
